From the NIST ThermoML archive (doi:10.1021/acs.jced.8b01217)
± gives the expanded uncertainty stated by the source.

Settings: Liquid, Ebulliometric method (Recirculating still)

O [water]
Settings	vapor or sublimation pressure [kPa]
310.81 K	6.424 ± 0.13
327.62 K	15.58 ± 0.27
339.92 K	27.15 ± 0.47
349.24 K	41.77 ± 0.7
353.35 K	47.72 ± 0.81
357.89 K	57.67 ± 0.97
362.48 K	68.16 ± 1.1
366.81 K	80.61 ± 1.4
370.97 K	93.23 ± 1.6
375.04 K	107.24 ± 1.8
